Laboratory results published in patent publication US8658568B2, “6-amino-2-substituted-5-vinylsilylpyrimidine-4-carboxylic acids and esters and 4-amino-6-substituted-3-vinylsilylpyridine-2-carboxylic acids and esters as herbicides” (Dow AgroSciences, LLC., priority 2011, dated 2014).

Key:
[1] = test system: ABUTH = velvetleaf (Abutilon theophrasti); experiment: Postemergence herbicidal activity, velvetleaf; format: in vivo; details: post-emergence, 336 h, post-emergent, visual score after 14 days (0 no injury, 100 complete kill), read-out: % Growth Reduction ABUTH; for pest or weed control at 140 g/ha: rate 140 g ai/ha; for pest or weed control at 280 g/ha: rate 280 g ai/ha
Experimental: (§1) Evaluation of Postemergence Herbicidal Activity
(§2) Seeds or nutlets of the desired test plant species were planted in Sun Gro MetroMix® 306 planting mixture, which typically has a pH of 6.0 to 6.8 and an organic matter content of about 30 percent, in plastic pots with a surface area of 64 square centimeters. When required to ensure good germination and healthy plants, a fungicide treatment and/or other chemical or physical treatment was applied. The plants were grown for 7-21 days in a greenhouse with an approximate 15 hour photoperiod which was maintained at about 23-29° C. during the day and 22-28° C. during the night. Nutrients and water were added on a regular basis and supplemental lighting was provided with overhead metal halide 1000-Watt lamps as necessary. The plants were employed for testing when they reached the first or second true leaf stage.
(§3) A weighed amount, determined by the highest rate to be tested, of each test compound was placed in a 25 mL glass vial and was dissolved in 4 mL of a 97:3 v/v (volume/volume) mixture of acetone and dimethyl sulfoxide (DMSO) to obtain concentrated stock solutions. […] The concentrated stock solutions obtained were diluted with 20 mL of an aqueous mixture containing acetone, water, isopropyl alcohol, DMSO, Atplus 411F crop oil concentrate, and Triton® X-155 surfactant in a 48.5:39:10:1.5:1.0:0.02 v/v ratio to obtain spray solutions containing the highest application rates. Additional application rates were obtained by serial dilution of 12 mL of the high rate solution into a solution containing 2 mL of 97:3 (v/v) mixture of acetone and dimethyl sulfoxide (DMSO) and 10 mL of an aqueous mixture containing acetone, water, isopropyl alcohol, DMSO, Atplus 411F crop oil concentrate, and Triton X-155 surfactant in a 48.5:39:10:1.5:1.0:0.02 (v/v) ratio to obtain 1/2 ×, 1/4 ×, 1/8× and 1/16× rates of the high rate. Compound requirements are based upon a 12 mL application volume at a rate of 187 L/ha. Formulated compounds were applied to the plant material with an overhead Mandel track sprayer equipped with a 8002E nozzles calibrated to deliver 187 L/ha over an application area of 0.503 square meters at a spray height of 18 inches (43 cm) above the average plant canopy height. Control plants were sprayed in the same manner with the solvent blank.
(§4) The treated plants and control plants were placed in a greenhouse as described above and watered by sub-irrigation to prevent wash-off of the test compounds. After 14 days, the condition of the test plants as compared with that of the untreated plants was determined visually and scored on a scale of 0 to 100 percent where 0 corresponds to no injury and 100 corresponds to complete kill
(§5) By applying the well-accepted probit analysis as described by J. Berkson in Journal of the […], 48, 565 (1953) and by D. Finney in “Probit Analysis” Cambridge University Press (1952), the above data can be used to calculate GR50 and GR80 values, which are defined as growth reduction factors that correspond to the effective dose of herbicide required to kill or control 50 percent or 80 percent, respectively, of a target plant.

[2] = test system: AMARE = redroot pigweed (Amaranthus retroflexus); experiment: Postemergence herbicidal activity, redroot pigweed; format: in vivo; details: post-emergence, 336 h, post-emergent, rate 140 g ai/ha, visual score after 14 days (0 no injury, 100 complete kill), read-out: % Growth Reduction AMARE
Experimental: as §1, §2, §3, §4, §5

[3] = test system: ECHCG = barnyardgrass (Echinochloa crus-galli); experiment: Postemergence herbicidal activity, barnyardgrass; format: in vivo; details: post-emergence, 336 h, post-emergent, visual score after 14 days (0 no injury, 100 complete kill), read-out: % Growth Reduction ECHCG; for pest or weed control at 140 g/ha: rate 140 g ai/ha; for pest or weed control at 280 g/ha: rate 280 g ai/ha
Experimental: as §1, §2, §3, §4, §5

[4] = test system: HELAN = sunflower (Helianthus annuus); experiment: Postemergence herbicidal activity, sunflower; format: in vivo; details: post-emergence, 336 h, post-emergent, visual score after 14 days (0 no injury, 100 complete kill), read-out: % Growth Reduction HELAN; for pest or weed control at 140 g/ha: rate 140 g ai/ha; for pest or weed control at 280 g/ha: rate 280 g ai/ha
Experimental: as §1, §2, §3, §4, §5

[5] = test system: CHEAL = lambsquarters (Chenopodium album); experiment: Postemergence herbicidal activity, lambsquarters; format: in vivo; details: post-emergence, 336 h, post-emergent, visual score after 14 days (0 no injury, 100 complete kill), read-out: % Growth Reduction CHEAL; for pest or weed control at 140 g/ha: rate 140 g ai/ha; for pest or weed control at 280 g/ha: rate 280 g ai/ha
Experimental: as §1, §2, §3, §4, §5

[6] = test system: IPOHE = ivyleaf morningglory (Ipomoea hederacea); experiment: Postemergence herbicidal activity, ivyleaf morningglory; format: in vivo; details: post-emergence, 336 h, post-emergent, visual score after 14 days (0 no injury, 100 complete kill), read-out: % Growth Reduction IPOHE; for pest or weed control at 140 g/ha: rate 140 g ai/ha; for pest or weed control at 280 g/ha: rate 280 g ai/ha
Experimental: as §1, §2, §3, §4, §5

[7] = test system: EPHHL = wild poinsettia (Euphorbia heterophylla); experiment: Postemergence herbicidal activity, wild poinsettia; format: in vivo; details: post-emergence, 336 h, post-emergent, visual score after 14 days (0 no injury, 100 complete kill), read-out: % Growth Reduction EPHHL; for pest or weed control at 140 g/ha: rate 140 g ai/ha; for pest or weed control at 280 g/ha: rate 280 g ai/ha
Experimental: as §1, §2, §3, §4, §5

Structure (SMILES)	pest or weed control at 140 g/ha [1] [%]	pest or weed control at 140 g/ha [2] [%]	pest or weed control at 140 g/ha [3] [%]	pest or weed control at 140 g/ha [4] [%]	pest or weed control at 140 g/ha [5] [%]	pest or weed control at 140 g/ha [6] [%]	pest or weed control at 140 g/ha [7] [%]	melting point [°C]	pest or weed control at 280 g/ha [1] [%]	pest or weed control at 280 g/ha [3] [%]	pest or weed control at 280 g/ha [4] [%]	pest or weed control at 280 g/ha [5] [%]	pest or weed control at 280 g/ha [6] [%]	pest or weed control at 280 g/ha [7] [%]
COC(=O)c1nc(-c2ccc(Cl)c(F)c2F)nc(N)c1/C=C/[Si](C)(C)C [Compound 1, (E)-methyl 6-amino-2-(4-chloro-2,3-difluorophenyl)-5-(2-(trimethylsilyl)vinyl)pyrimidine-4-carboxylate]	100	100	85	90	100	80	50							
COC(=O)c1nc(-c2ccc(Cl)c(OC)c2F)nc(N)c1/C=C/[Si](C)(C)C [Compound 2, (E)-methyl 6-amino-2-(4-chloro-2-fluoro-3-methoxyphenyl)-5-(2-(trimethylsilyl)vinyl)-pyrimidine-4-carboxylate]	98	100	98	100		90	100	161 to 163						
COC(=O)c1nc(-c2ccc(Cl)cc2F)nc(N)c1/C=C/[Si](C)(C)C [Compound 3, (E)-methyl 6-amino-2-(4-chloro-2-fluorophenyl)-5-(2-(trimethylsilyl)vinyl)pyrimidine-4-carboxylate]	100	100	0	90	100	70	100							
CCOC(=O)c1nc(C2CC2)nc(N)c1/C=C/[Si](C)(C)C [Compound 4, (E)-ethyl 6-amino-2-cyclopropyl-5-(2-(trimethylsilyl)vinyl)pyrimidine-4-carboxylate]	0		0	0	100	100	100							
C[Si](C)(C)/C=C/c1c(N)nc(-c2ccc(Cl)c(F)c2F)nc1C(=O)O [Compound 5, (E)-6-amino-2-(4-chloro-2,3-difluorophenyl)-5-(2-(trimethylsilyl)vinyl)pyrimidine-4-carboxylic acid]	100	90	50	90	100	60	100							
C[Si](C)(C)/C=C/c1c(N)nc(-c2ccc(Cl)cc2F)nc1C(=O)O [Compound 7, (E)-6-amino-2-(4-chloro-2-fluorophenyl)-5-(2-(trimethylsilyl)vinyl)pyrimidine-4-carboxylic acid]	100	100	80	90	100	70	100							
C[Si](C)(C)/C=C/c1c(N)nc(C2CC2)nc1C(=O)O [Compound 8, (E)-6-amino-2-cyclopropyl-5-(2-(trimethylsilyl)vinyl)pyrimidine-4-carboxylic acid]									0	0	65	65	78	100
CCO[Si](/C=C/c1c(N)nc(-c2ccc(Cl)c(OC)c2F)nc1C(=O)OC)(OCC)OCC [Compound 9, (E)-methyl 6-amino-2-(4-chloro-2-fluoro-3-methoxyphenyl)-5-(2-(triethoxysilyl)vinyl)pyrimidine-4-carboxylate]	100		80	90	100	80	100							
COc1c(Cl)ccc(-c2nc(N)c(/C=C/[Si](O)(O)O)c(C(=O)O)n2)c1F [Compound 10, (E)-6-amino-2-(4-chloro-2-fluoro-3-methoxyphenyl)-5-(2-(trihydroxysilyl)vinyl)pyrimidine-4-carboxylic acid]	100		80	100	100	80	100							
COC(=O)c1nc(-c2ccc(Cl)c(F)c2)c(F)c(N)c1/C=C/[Si](C)(C)C [Compound 11, (E)-methyl 4-amino-6-(4-chloro-3-fluorophenyl)-5-fluoro-3-(2-(trimethylsilyl)vinyl)picolinate]	80	100	0	90	100	70	80							
C[Si](C)(C)/C=C/c1c(C(=O)O)nc(-c2ccc(Cl)c(F)c2)c(F)c1N [Compound 14, (E)-4-amino-6-(4-chloro-3-fluorophenyl)-5-fluoro-3-(2-(trimethylsilyl)vinyl)picolinic acid]	65		70	80	100	80	100							
C[Si](C)(C)/C=C/c1c(C(=O)O)nc(-c2ccc(Cl)cc2)c(F)c1N [Compound 15, (E)-4-amino-6-(4-chlorophenyl)-5-fluoro-3-(2-(trimethylsilyl)vinyl)picolinic acid]	80	100	80	90	90	70	90							
CCc1nc(C(=O)O)c(/C=C/[Si](C)(C)C)c(N)c1F [Compound 16, (E)-4-amino-6-ethyl-5-fluoro-3-(2-(trimethylsilyl)vinyl)picolinic acid]									5	0	20	10	60	0
